Among the data in patent US10689362B2, “Quinoxaline compounds as type III receptor tyrosine kinase inhibitors” (Development Center for Biotechnology, priority 2016, dated 2020) are IC50 and inhibition values, retold here.

The structures appear in SMILES notation. Some results are limits rather than exact numbers.

The target in one assay is CSF-1R kinase (Homo sapiens (Human), UniProt P07333). Nature of the assay: CSF-1R kinase assay (AlphaScreen). It counts as biochemical. The note with it: class symbol. On the procedure: Inhibition of CSF-1R kinase activity by a test compound disclosed herein was estimated by AlphaScreen (PerkinElmer). […] Reactions were incubated at 30° C. for 45 min and stopped by adding 5 μL of 50 mM EDTA. Analysis of resulting product using an AlphaScreen kit, and counted with Enspire Alpha (PerkinElmer). […] The IC50 values of quinoxaline compounds of this invention against CSF-1R kinase were determined using the GraphPad Prism 5 software.
Sequence of CSF-1R kinase (P07333 20-972): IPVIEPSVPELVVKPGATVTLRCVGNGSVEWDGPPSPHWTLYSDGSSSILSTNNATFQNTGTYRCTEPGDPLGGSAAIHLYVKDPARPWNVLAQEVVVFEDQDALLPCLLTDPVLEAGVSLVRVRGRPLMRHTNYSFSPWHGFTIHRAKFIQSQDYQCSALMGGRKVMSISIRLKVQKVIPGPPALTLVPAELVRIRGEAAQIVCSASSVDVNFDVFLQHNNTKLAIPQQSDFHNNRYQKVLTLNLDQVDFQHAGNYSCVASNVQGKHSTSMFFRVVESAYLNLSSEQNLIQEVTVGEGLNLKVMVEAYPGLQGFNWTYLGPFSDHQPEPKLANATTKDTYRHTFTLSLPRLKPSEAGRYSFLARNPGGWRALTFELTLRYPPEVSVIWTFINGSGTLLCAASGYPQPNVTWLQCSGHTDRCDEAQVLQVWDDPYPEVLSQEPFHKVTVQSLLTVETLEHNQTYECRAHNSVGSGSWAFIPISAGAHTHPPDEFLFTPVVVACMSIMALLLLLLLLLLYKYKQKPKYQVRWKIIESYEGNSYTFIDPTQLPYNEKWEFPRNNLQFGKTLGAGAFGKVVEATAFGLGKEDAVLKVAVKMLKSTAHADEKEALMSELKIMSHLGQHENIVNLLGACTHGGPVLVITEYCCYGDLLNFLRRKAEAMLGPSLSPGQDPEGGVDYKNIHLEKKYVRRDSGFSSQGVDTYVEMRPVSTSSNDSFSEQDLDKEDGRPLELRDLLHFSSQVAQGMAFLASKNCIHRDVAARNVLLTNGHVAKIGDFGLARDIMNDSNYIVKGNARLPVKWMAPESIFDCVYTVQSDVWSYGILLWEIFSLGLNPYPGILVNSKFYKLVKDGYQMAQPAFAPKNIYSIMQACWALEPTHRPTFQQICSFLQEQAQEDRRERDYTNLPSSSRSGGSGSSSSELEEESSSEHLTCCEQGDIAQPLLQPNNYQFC

A further assay addresses c-KIT kinase (Homo sapiens (Human), UniProt P10721). The assay can be described thus: c-KIT kinase assay (radiometric). In kind it is biochemical. The essentials: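 Recombinant c-Kit (20 ng) with 2 μg Poly-(Glu4:Tyr1) in MOPS pH 7.0 buffer with MgCl2/MnCl2, 10 μM ATP plus [^33P]-ATP, 4% DMSO final, 60 min at 30° C. Stopped with phosphoric acid, filter-captured and scintillation counted; IC50 from curve fit.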

For another assay, the target named is FLT3 kinase (Homo sapiens (Human), UniProt P36888). The assay can be described thus: FLT3 kinase assay (radiometric). It counts as biochemical. The method, boiled down: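 Recombinant FLT3 (5 ng) phosphorylating poly(Glu4:Tyr1) (2 μg) with 10 μM ATP plus [^33P]-ATP in MOPS pH 7.0 buffer, 4% DMSO final, 60 min at 30° C. Reaction stopped with phosphoric acid, filter-captured and scintillation-counted; IC50 derived from dose-response.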
Sequence of FLT3 kinase (P36888 27-993): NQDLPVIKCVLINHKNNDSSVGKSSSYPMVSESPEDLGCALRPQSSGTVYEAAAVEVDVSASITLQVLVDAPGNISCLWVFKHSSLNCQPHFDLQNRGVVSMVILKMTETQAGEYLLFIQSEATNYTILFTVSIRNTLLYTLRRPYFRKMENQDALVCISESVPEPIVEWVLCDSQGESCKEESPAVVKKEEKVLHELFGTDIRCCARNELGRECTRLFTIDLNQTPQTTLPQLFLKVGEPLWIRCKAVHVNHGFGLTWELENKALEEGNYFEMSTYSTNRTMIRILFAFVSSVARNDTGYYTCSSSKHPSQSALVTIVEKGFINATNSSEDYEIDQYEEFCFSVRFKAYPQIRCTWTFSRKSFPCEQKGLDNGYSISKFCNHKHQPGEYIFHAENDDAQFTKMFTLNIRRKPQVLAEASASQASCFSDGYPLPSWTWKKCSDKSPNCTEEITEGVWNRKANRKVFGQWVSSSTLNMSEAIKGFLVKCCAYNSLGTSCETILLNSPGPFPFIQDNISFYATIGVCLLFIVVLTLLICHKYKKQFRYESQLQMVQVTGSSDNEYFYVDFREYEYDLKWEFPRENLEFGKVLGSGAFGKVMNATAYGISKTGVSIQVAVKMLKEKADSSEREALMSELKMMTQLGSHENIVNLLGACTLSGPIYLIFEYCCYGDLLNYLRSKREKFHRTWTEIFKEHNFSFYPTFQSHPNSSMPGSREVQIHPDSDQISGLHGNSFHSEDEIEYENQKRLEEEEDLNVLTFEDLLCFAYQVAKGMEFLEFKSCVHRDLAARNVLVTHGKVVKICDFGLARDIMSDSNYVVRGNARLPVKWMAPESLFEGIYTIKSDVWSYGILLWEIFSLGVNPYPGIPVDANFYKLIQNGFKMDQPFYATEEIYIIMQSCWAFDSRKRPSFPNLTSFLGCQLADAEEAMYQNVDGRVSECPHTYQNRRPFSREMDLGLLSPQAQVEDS

In a further assay the target is PDGFRβ kinase (Homo sapiens (Human), UniProt P09619). The assay can be described thus: PDGFRβ kinase assay (radiometric). It counts as biochemical. The essentials:
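Radiometric assay: recombinant PDGFRβ with poly(Glu4:Tyr1) in MOPS pH 7.0 buffer containing Mg2+/Mn2+, 10 μM ATP plus [33P]-ATP, and compound at 4% DMSO final. Incubated 60 min at 30° C, stopped with phosphoric acid, filter-captured and scintillation-counted. IC50 from curve fitting.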

Assay [1] deals with CSF-1-dependent M-NFS-60 mouse myeloid leukemia cell. The assay can be described thus: M-NFS-60 cell proliferation assay (CellTiter-96). In kind it is cell-based. Conditions: Cytotoxicity, M-NFS-60 cells, 72 hours. The method, boiled down: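 CSF-1-dependent M-NFS-60 cells seeded at 2000 cells/well, settled overnight at 37 °C, 5% CO2, then exposed to increasing compound concentrations for 72 h. Viability read by CellTiter 96 AQueous One reagent (4 h) at 490 nm absorbance.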

The subject of assay [2] is MV4-11 human acute myeloid leukemia cell with FLT3-ITD mutation. Nature of the assay: MV4-11 cell proliferation assay (CellTiter-96). In kind it is cell-based. The note with it: Cytotoxicity, MV4-11 cells, 72 hours. The method, boiled down: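 MV4-11 cells (FLT3-ITD, FLT3-dependent growth) seeded at 6500 cells/well, incubated overnight at 37° C., 5% CO2, then exposed to increasing compound concentrations for 72 hours. Viability read by CellTiter96 AQueous One reagent (4 hours), absorbance at 490 nm.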

For assay [3], the system named is Kasumi-1 human acute myeloid leukemia cell with c-KIT N822K activating mutation. Nature of the assay: Kasumi-1 cell proliferation assay (CellTiter-96). In kind it is cell-based. Conditions: Cytotoxicity, Kasumi-1 cells, 72 hours. The essentials: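 Kasumi-1 cells, seeded at 64000 cells/well and incubated overnight at 37 °C, were exposed to increasing compound concentrations for 72 h. Viability was measured by CellTiter96 AQueous One reagent (4 h) and absorbance at 490 nm.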

Assay [4] relates to THP-1 human acute monocytic leukemia cell harboring NRAS G12D mutation. Nature of the assay: THP-1 cell proliferation assay (counter screen, CellTiter-96). It counts as cell-based. Conditions: Cytotoxicity, THP-1 cells (counter screen), 72 hours. The method, boiled down:
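THP-1 cells, RTK-independent owing to NRAS G12D, seeded at 5000/well, incubated overnight at 37 °C/5% CO2, then exposed to increasing compound concentrations for 72 h. CellTiter96 AQueous One reagent added for 4 h; viability from absorbance at 490 nm.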

The test system of assay [5] is osteoclast precursors (osteoclast differentiation). The assay can be described thus: Osteoclast tartrate-resistant acid phosphatase assay. In kind it is cell-based. Conditions: 168 h, at 1 μM treatment, 7 days, RANKL and M-CSF, read-out: inhibition activity against osteoclast differentiation. On the procedure: A serial dilution of test compound was dispensed into a 96-well black clear bottom plate. Compound was diluted by the addition of DMEM media supplemented with 10% characterized fetal bovine serum. Diluted compound was transferred to a 96-well black clear bottom plate. Three thousand osteoclast precursors (Lonza, Walkersville, Md.) were added per well in growth medium containing Receptor Activator of Nuclear Factor Kappa-beta ligand (RANKL) and M-CSF. […] At the end of the incubation period, 50 μL of supernatant from each well was transferred to a clear 96-well plate. Tartrate-resistant acid phosphatase activity in the supernatant samples was determined using an acid phosphatase assay kit (Sigma, St. Louis, Mo.). Absorbance was measured at 550 nm using a plate reader. […] The Inhibition activity against osteoclast differentiation for each compound at 1 μM treatment in duplicate was measured.

Sequence of c-KIT kinase (P10721 26-976): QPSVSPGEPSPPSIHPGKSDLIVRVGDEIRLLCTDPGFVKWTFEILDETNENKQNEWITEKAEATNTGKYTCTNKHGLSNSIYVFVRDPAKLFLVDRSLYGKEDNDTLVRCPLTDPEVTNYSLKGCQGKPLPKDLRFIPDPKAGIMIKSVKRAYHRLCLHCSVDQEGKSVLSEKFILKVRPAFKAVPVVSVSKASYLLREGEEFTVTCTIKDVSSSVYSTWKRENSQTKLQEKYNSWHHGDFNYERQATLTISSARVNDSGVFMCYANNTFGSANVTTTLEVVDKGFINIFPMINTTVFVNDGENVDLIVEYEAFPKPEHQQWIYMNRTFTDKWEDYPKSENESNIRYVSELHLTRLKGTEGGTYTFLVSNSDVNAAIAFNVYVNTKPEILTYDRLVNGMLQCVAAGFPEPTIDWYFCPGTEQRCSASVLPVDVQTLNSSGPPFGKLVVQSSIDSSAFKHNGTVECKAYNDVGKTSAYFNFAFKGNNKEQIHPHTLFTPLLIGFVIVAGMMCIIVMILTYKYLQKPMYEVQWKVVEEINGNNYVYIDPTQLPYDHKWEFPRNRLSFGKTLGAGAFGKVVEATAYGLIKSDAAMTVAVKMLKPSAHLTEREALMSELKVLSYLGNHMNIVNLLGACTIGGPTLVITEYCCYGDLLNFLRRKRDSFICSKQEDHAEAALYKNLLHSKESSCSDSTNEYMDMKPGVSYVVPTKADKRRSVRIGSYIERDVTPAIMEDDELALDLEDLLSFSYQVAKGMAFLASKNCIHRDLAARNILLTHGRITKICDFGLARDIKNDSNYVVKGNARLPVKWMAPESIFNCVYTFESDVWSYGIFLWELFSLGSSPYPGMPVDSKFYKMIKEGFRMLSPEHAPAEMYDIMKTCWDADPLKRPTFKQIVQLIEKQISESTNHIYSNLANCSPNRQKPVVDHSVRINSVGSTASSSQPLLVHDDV
Sequence of PDGFRβ kinase (P09619 33-1106): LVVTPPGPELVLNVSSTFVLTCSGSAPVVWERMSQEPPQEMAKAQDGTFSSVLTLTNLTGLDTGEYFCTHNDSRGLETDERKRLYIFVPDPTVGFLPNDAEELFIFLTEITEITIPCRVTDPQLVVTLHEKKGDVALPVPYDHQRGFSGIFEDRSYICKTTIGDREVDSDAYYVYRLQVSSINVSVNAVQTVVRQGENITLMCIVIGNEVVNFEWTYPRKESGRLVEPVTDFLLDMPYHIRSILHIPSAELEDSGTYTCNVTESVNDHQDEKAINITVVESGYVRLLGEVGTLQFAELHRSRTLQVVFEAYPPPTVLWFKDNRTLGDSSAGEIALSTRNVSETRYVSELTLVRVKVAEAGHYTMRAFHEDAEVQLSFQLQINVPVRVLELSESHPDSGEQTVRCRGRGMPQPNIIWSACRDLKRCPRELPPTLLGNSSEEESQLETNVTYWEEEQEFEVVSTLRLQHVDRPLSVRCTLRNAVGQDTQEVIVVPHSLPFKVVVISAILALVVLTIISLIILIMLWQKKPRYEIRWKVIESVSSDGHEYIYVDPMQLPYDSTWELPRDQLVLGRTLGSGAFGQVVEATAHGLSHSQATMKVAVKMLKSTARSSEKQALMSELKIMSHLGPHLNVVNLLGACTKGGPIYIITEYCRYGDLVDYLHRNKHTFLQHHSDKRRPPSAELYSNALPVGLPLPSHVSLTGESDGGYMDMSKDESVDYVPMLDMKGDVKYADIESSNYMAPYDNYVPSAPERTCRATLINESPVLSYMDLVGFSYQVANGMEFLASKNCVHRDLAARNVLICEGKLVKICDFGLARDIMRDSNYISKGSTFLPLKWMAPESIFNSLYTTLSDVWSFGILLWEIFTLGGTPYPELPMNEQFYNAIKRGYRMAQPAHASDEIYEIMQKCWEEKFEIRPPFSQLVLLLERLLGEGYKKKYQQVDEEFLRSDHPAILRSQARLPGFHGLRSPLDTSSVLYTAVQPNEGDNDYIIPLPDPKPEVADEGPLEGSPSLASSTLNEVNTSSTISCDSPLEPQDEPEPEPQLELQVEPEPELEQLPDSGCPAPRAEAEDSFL

Consider `COc1cc(Nc2ccc3ncc(N4CCOCC4)nc3c2C#N)ccc1OCc1ccc(OC(F)(F)F)cc1` [Example 32, 6-((3-methoxy-4-((4-(trifluoromethoxy)benzyl)oxy)phenyl)amino)-3-morpholinoquinoxaline-5-carbonitrile], for which the IC50 at CSF-1R kinase was under 100 nM; against c-KIT kinase (class symbol), under 100 nM; against FLT3 kinase (bound) it was over 1000 nM; against PDGFRβ kinase (class symbol) it was 100 to 300 nM; in [1], under 300 nM; in assay [2], 1000 to 10000 nM. The IC50 is 300 to 1000 nM in [3] and over 10000 nM in assay [4]. For the same compound, the inhibition at 1 µM in [5] was over 50%.

For the compound `CCc1ccc(COc2ccc(Nc3ccc4ncc(N5CCOCC5)nc4c3C#N)cc2OC)cc1` [Example 33, 6-((4-((4-ethylbenzyl)oxy)-3-methoxyphenyl)amino)-3-morpholinoquinoxaline-5-carbonitrile], the IC50 on CSF-1R kinase was under 100 nM; against c-KIT kinase (class symbol) it was under 100 nM; at FLT3 kinase (bound) it was over 1000 nM; against PDGFRβ kinase (class symbol), 100 to 300 nM; in assay [1] it was under 300 nM; in assay [2], 1000 to 10000 nM. Also, the results for the IC50 in [3] and in assay [4] were under 300 nM and over 10000 nM, respectively. For the same compound, the inhibition at 1 µM in [5] was over 50%.

In the case of `CCOc1ccc(COc2ccc(Nc3ccc4ncc(N5CCOCC5)nc4c3C#N)cc2OC)cc1` [Example 35, 6-((4-((4-ethoxybenzyl)oxy)-3-methoxyphenyl)amino)-3-morpholinoquinoxaline-5-carbonitrile], the IC50 was under 100 nM against CSF-1R kinase; under 100 nM against c-KIT kinase (class symbol); over 1000 nM against FLT3 kinase (bound); 300 to 1000 nM on PDGFRβ kinase (class symbol); under 300 nM in assay [1]; 1000 to 10000 nM in assay [2]. For the same compound, the IC50 in [3] was under 300 nM; in assay [4], over 10000 nM. For the same compound, in assay [5], the inhibition at 1 µM is over 50%.

For `COc1ccc(COc2ncc(Nc3ccc4ncc(N5CCOCC5)nc4c3C#N)cc2OC)cc1` [Example 37, 6-((5-methoxy-6-((4-methoxybenzyl)oxy)pyridin-3-yl)amino)-3-morpholinoquinoxaline-5-carbonitrile], the IC50 was under 100 nM against CSF-1R kinase; over 1000 nM against c-KIT kinase (bound); over 1000 nM on FLT3 kinase (bound); over 1000 nM against PDGFRβ kinase (bound); under 300 nM in assay [1]; over 10000 nM in [2]. Moreover, the IC50 in assay [3] and in assay [4] was over 10000 nM in each case. In assay [5], the inhibition at 1 µM is over 50%.

As for `COc1ccc(COc2ccc(Nc3ccc4ncc(N5CCOCC5)nc4c3C#N)cc2)cc1` [Example 38, 6-((4-((4-methoxybenzyl)oxy)phenyl)amino)-3-morpholinoquinoxaline-5-carbonitrile], the IC50 was under 100 nM against CSF-1R kinase; under 100 nM at c-KIT kinase (class symbol); 100 to 300 nM against FLT3 kinase (class symbol); 100 to 300 nM against PDGFRβ kinase (class symbol); under 300 nM in [1]; under 300 nM in [2]. Moreover, the values for the IC50 in [3] and in assay [4] were 300 to 1000 nM and over 10000 nM, respectively. Moreover, the inhibition at 1 µM in assay [5] was over 50%.

For `COc1cc(Nc2ccc3ncc(N4CCOCC4)nc3c2C#N)ccc1OCc1ccc(F)cc1` [Example 40, 6-((4-((4-fluorobenzyl)oxy)-3-methoxyphenyl)amino)-3-morpholinoquinoxaline-5-carbonitrile], the IC50 is under 100 nM against CSF-1R kinase; over 1000 nM against c-KIT kinase (bound); over 1000 nM against FLT3 kinase (bound); over 1000 nM on PDGFRβ kinase (bound); under 300 nM in assay [1]; over 10000 nM in assay [2]. Also, the IC50 in assay [3] and in [4] was over 10000 nM throughout. In addition, the inhibition at 1 µM in [5] was over 50%.

For the compound `COc1cc(Nc2ccc3ncc(N4CCOCC4)nc3c2C#N)ccc1OCc1ccc2c(c1)CCO2` [Example 45, 6-((4-((2,3-dihydrobenzofuran-5-yl)methoxy)-3-methoxyphenyl)amino)-3-morpholinoquinoxaline-5-carbonitrile], the IC50 against CSF-1R kinase was under 100 nM; against c-KIT kinase (class symbol) it was under 100 nM; on FLT3 kinase (bound) it was over 1000 nM; on PDGFRβ kinase (bound), over 1000 nM; in assay [1] it was under 300 nM; in assay [2] it was over 10000 nM. Further, the IC50 in assay [3] was 300 to 1000 nM; in assay [4], over 10000 nM. Also, the inhibition at 1 µM in [5] is over 50%.

`COc1cc(Nc2ccc3ncc(N4CCOCC4)nc3c2C#N)ccc1OCc1ccc(Cl)cc1` [Example 49, 6-((4-((4-chlorobenzyl)oxy)-3-methoxyphenyl)amino)-3-morpholinoquinoxaline-5-carbonitrile]: the IC50 is under 100 nM against CSF-1R kinase; under 100 nM against c-KIT kinase (class symbol); over 1000 nM on FLT3 kinase (bound); over 1000 nM at PDGFRβ kinase (bound); under 300 nM in assay [1]; 1000 to 10000 nM in assay [2]. For the same compound, the results for the IC50 in assay [3] and in assay [4] were 300 to 1000 nM and over 10000 nM, respectively. Also, in assay [5], the inhibition at 1 µM was over 50%.

With `COc1ccc(COc2ccc(Nc3ccc4ncc(N5CCOCC5)nc4c3C#N)cc2OC)cn1` [Example 50, 6-((3-methoxy-4-((6-methoxypyridin-3-yl)methoxy)phenyl)amino)-3-morpholinoquinoxaline-5-carbonitrile], the IC50 against CSF-1R kinase was under 100 nM; against c-KIT kinase (class symbol), 100 to 300 nM; on FLT3 kinase (bound), over 1000 nM; on PDGFRβ kinase (bound) it was over 1000 nM; in assay [1] it was under 300 nM; in assay [2], over 10000 nM. Also, the results for the IC50 in assay [3] and in assay [4] were 300 to 1000 nM and over 10000 nM, respectively. Further, in assay [5], the inhibition at 1 µM is over 50%.

In the case of `COc1ccc(COc2ccc(Nc3ccc4ncc(N5CCOCC5)nc4c3C#N)cn2)cc1` [Example 52, 6-((6-((4-methoxybenzyl)oxy)pyridin-3-yl)amino)-3-morpholinoquinoxaline-5-carbonitrile], the IC50 against CSF-1R kinase was under 100 nM; against c-KIT kinase (class symbol) it was 100 to 300 nM; against FLT3 kinase (class symbol) it was 300 to 1000 nM; against PDGFRβ kinase (bound), over 1000 nM; in assay [1], 300 to 1000 nM; in [2], under 300 nM. In addition, the IC50 is 300 to 1000 nM in assay [3] and over 10000 nM in assay [4]. The inhibition at 1 µM in assay [5] is over 50%.

As to `COc1ccc(COc2ccc(Nc3ccc4ncc(N5CCOCC5)nc4c3C#N)c(F)c2)cc1` [Example 53, 6-((2-fluoro-4-((4-methoxybenzyl)oxy)phenyl)amino)-3-morpholinoquinoxaline-5-carbonitrile], the IC50 at CSF-1R kinase is under 100 nM; on c-KIT kinase (class symbol), 300 to 1000 nM; against FLT3 kinase (class symbol) it was 300 to 1000 nM; against PDGFRβ kinase (bound) it was over 1000 nM; in assay [1], 300 to 1000 nM; in assay [2], under 300 nM. Also, the IC50 in [3] is 1000 to 10000 nM; in [4], over 10000 nM. Also, in assay [5], the inhibition at 1 µM was over 50%.

Regarding `COc1ccc(COc2ccc(Nc3ccc4ncc(N5CCOCC5)nc4c3C#N)cc2F)cc1` [Example 56, 6-((3-fluoro-4-((4-methoxybenzyl)oxy)phenyl)amino)-3-morpholinoquinoxaline-5-carbonitrile], the IC50 was under 100 nM against CSF-1R kinase; 100 to 300 nM on c-KIT kinase (class symbol); over 1000 nM against FLT3 kinase (bound); over 1000 nM against PDGFRβ kinase (bound); 300 to 1000 nM in [1]; 300 to 1000 nM in assay [2]. Further, the figures for the IC50 in assay [3] and in assay [4] were 1000 to 10000 nM and over 10000 nM, respectively. In addition, in assay [5], the inhibition at 1 µM was over 50%.
